System: HFD-fed C57BL/6J mice
Test: Untargeted cortex LC-MS metabolomics
Format: in vivo
Conditions: cortex of HFD-fed mice
Experimental: Plasma and Cortex LC-MS Metabolomics. The left and right sides of the cortex were pooled and ground using liquid nitrogen. Cortex samples (approximately 30 mg) were extracted as previously described with slight modifications. Tissues were homogenized with 600 μL of cold 80% acetonitrile with 0.1% formic acid containing 0.2 μg/mL of dopamine-d4 (Sigma-Aldrich, St Louis, MO, USA) and 0.2 μg/mL of chlorpropamide (Sigma-Aldrich, St Louis, MO, USA) using a counter-top bullet blender for 2 min and centrifuged at 20 000 rpm for 10 minutes. Supernatants were transferred to high performance liquid chromatography (HPLC) vials for analysis.
LC-high-resolution mass spectrometry/MS. Data dependent acquisition in both negative and positive ion mode was conducted using a Shimadzu Nexera UPLC system coupled to an AB SCIEX TripleTOF 5600 mass spectrometer (AB SCIEX, Toronto, Canada). Chromatographic separation was conducted using an Inertsil Phenyl-3 column (4.6×150 mm, 100 Å, 5 μm; GL Sciences, Tokyo, Japan). Spray voltage was −4200 V for negative ion mode and 4500 V for positive ion mode acquisition. The injection volume was 3 μL. Metabolite identifications were performed using Progenesis QI software (V2.4.6911) with METLIN plugin V1.0.6499 (NonLinear Dynamics, United Kingdom). Progenesis QI was used for peak picking, retention time correction, data normalization, peak alignment, and metabolite annotations. Metabolites were detected in both ion modes; the one with the lowest coefficient of variation of the QC was kept.

## COc1cc(O)c(CC=C(C)C)c(O)c1-c1cc(-c2ccc(O)cc2)n(C)n1 [XP, 4-(5-(4-hydroxyphenyl)-1-methyl-1H-pyrazol-3-yl)-5-methoxy-2-(3-methylbut-2-en-1-yl)benzene-1,3-diol]
  Ion intensities, Mean: 1,2-DIPALMITOYL-SN-GLYCEROL: 1513.84
  Ion intensities, Mean: 1-Arachidonoyl-glycerophosphoinositol: 546.96
  Ion intensities, Mean: 1-Palmitoyl-2-linoleoyl PE: 1180.62
  Ion intensities, Mean: 2-Pyrrolidinone: 1222.06
  Ion intensities, Mean: 2′-DEOXYURIDINE 5′-MONOPHOSPHATE: 594.66
  Ion intensities, Mean: 3-Methyl-L-histidine: 518.49
  Ion intensities, Mean: 3-PHOSPHO-GLYCERIC ACID: 2370.20
  Ion intensities, Mean: 5-Acetylamino-6-amino-3-methyluracil: 52.73
  Ion intensities, Mean: 5-Methylcytidine: 9448.98
  Ion intensities, Mean: 12-HYDROXYDODECANOIC-ACID: 2251.29
  Ion intensities, Mean: 20-Hydroxy-PGE2: 7093.39
  Ion intensities, Mean: 27-Hydroxycholesterol: 20090.45
  Ion intensities, Mean: ADENOSINE: 49823.74
  Ion intensities, Mean: ADENOSINE 5′-DIPHOSPHORIBOSE: 4312.21
  Ion intensities, Mean: ADENOSINE 5′-MONOPHOSPHATE: 90459.20
  Ion intensities, Mean: ADENOSINE-5′-DIPHOSPHOGLUCOSE: 1755.31
  Ion intensities, Mean: ADP: 3426.97
  Ion intensities, Mean: AMINOADIPATE: 331.86
  Ion intensities, Mean: ASCORBATE: 1431.15
  Ion intensities, Mean: ASPARTATE: 1333.10
  Ion intensities, Mean: Acetylcarnitine: 12649.68
  Ion intensities, Mean: Acetylcholine: 1745.95
  Ion intensities, Mean: Adenine: 1949.85
  Ion intensities, Mean: Adenylosuccinate: 1016.78
  Ion intensities, Mean: Adenylsuccinic acid: 3152.34
  Ion intensities, Mean: Arachidonic acid: 20901.19
  Ion intensities, Mean: Arachidonic acid ethyl ester: 351.43
  Ion intensities, Mean: Arginine: 2112.34
  Ion intensities, Mean: Aspartic acid: 8729.17
  Ion intensities, Mean: BILIVERDIN: 167.09
  Ion intensities, Mean: CARNITINE: 14584.14
  Ion intensities, Mean: CDP-Ethanolamine: 571.19
  Ion intensities, Mean: CHENODEOXYCHOLATE: 5735.03
  Ion intensities, Mean: CITRATE: 1682.49
  Ion intensities, Mean: CMP: 688.26
  Ion intensities, Mean: Carnosine: 1422.99
  Ion intensities, Mean: Choline: 8899.36
  Ion intensities, Mean: Creatine: 89712.34
  Ion intensities, Mean: Cysteineglutathione disulfide: 1531.40
  Ion intensities, Mean: Cytidine: 846.95
  Ion intensities, Mean: Cytidine 2′,3′-cyclic phosphate: 356.88
  Ion intensities, Mean: Cytidine diphosphate choline (CDPcholine): 2658.54
  Ion intensities, Mean: D-GLUCOSE 6-PHOSPHATE: 138.50
  Ion intensities, Mean: D-Glucaro-1,4-lactone: 1887.47
  Ion intensities, Mean: D-RIBOSE 5-PHOSPHATE: 136.10
  Ion intensities, Mean: DESMOSTEROL: 15551.25
  Ion intensities, Mean: DIHYDROOROTATE: 91.24
  Ion intensities, Mean: Deoxycytidine: 665.81
  Ion intensities, Mean: Deoxyguanosine: 2401.12
  Ion intensities, Mean: Docosahexaenoic acid: 2873.42
  Ion intensities, Mean: Docosenamide: 20845.53
  Ion intensities, Mean: Dodecanedioic acid: 333.82
  Ion intensities, Mean: ERUCIC ACID: 98.90
  Ion intensities, Mean: ETHANOLAMINE PHOSPHATE: 441.02
  Ion intensities, Mean: Ergothioneine: 515.38
  Ion intensities, Mean: Ethyl nicotinate: 81.18
  Ion intensities, Mean: GLUTAMIC ACID: 9048.31
  Ion intensities, Mean: GLUTAMINE: 22688.89
  Ion intensities, Mean: GUANOSINE 5′-MONOPHOSPHATE: 4141.69
  Ion intensities, Mean: Glutamate: 53559.34
  Ion intensities, Mean: Glutathione: 232313.32
  Ion intensities, Mean: Glycerophosphocholine: 124857.55
  Ion intensities, Mean: Guanosine monophosphate: 845.86
  Ion intensities, Mean: HEPTADECANOATE: 23.50
  Ion intensities, Mean: HISTIDINE: 1129.76
  Ion intensities, Mean: Homocarnosine: 689.23
  Ion intensities, Mean: Homoserine: 1034.62
  Ion intensities, Mean: Hydroxybutyric acid: 2833.09
  Ion intensities, Mean: Hydroxyphenethylamine: 4074.28
  Ion intensities, Mean: Hypoxanthine: 88.42
  Ion intensities, Mean: Hypusine: 196.91
  Ion intensities, Mean: ISOCITRIC ACID: 2051.66
  Ion intensities, Mean: ISOLEUCINE: 1578.44
  Ion intensities, Mean: Indoleacetaldehyde: 523.18
  Ion intensities, Mean: Inosine: 1409.62
  Ion intensities, Mean: Inosine 5′-monophosphate (IMP): 5581.09
  Ion intensities, Mean: Isostearic acid: 1901.95
  Ion intensities, Mean: L-2-Amino-5-hydroxypentanoicacid: 2343.03
  Ion intensities, Mean: L-OLEOYL-RAC-GLYCEROL: 2628.37
  Ion intensities, Mean: LACTATE: 3144.80
  Ion intensities, Mean: LAUROYLCARNITINE: 277.93
  Ion intensities, Mean: LEUKOTRIENE B4: 30.73
  Ion intensities, Mean: LYSINE: 107.27
  Ion intensities, Mean: Lathosterol: 14569.93
  Ion intensities, Mean: Lipoamide: 114.97
  Ion intensities, Mean: MALATE: 1664.52
  Ion intensities, Mean: Methionine: 2031.63
  Ion intensities, Mean: Methylthioadenosine: 3521.96
  Ion intensities, Mean: Myristoylcarnitine: 1303.77
  Ion intensities, Mean: N,N-dimethyl-Safingol: 578.09
  Ion intensities, Mean: N-(1-Deoxy-1-fructosyl) serine: 4331.01
  Ion intensities, Mean: N-ACETYL-L-ASPARTICACID: 25975.80
  Ion intensities, Mean: N-ACETYLNEURAMINATE: 1670.91
  Ion intensities, Mean: N-Acetyl-Glutamic acid: 205.45
  Ion intensities, Mean: N-Acetyl-L-alanine: 1909.11
  Ion intensities, Mean: N-Acetylaspartylglutamic acid: 2955.57
  Ion intensities, Mean: N-Acetylglutamine: 519.28
  Ion intensities, Mean: N-Acetylisoputreanine: 153.75
  Ion intensities, Mean: N-Acetyllactosamine: 273.32
  Ion intensities, Mean: N-Linoleoyl GABA: 54.12
  Ion intensities, Mean: N-Methyl-Glutamate: 2772.85
  Ion intensities, Mean: N-a-Acetyl-Arginine: 270.36
  Ion intensities, Mean: NAD: 1268.92
  Ion intensities, Mean: NE,NE,NE-TRIMETHYLLYSINE: 3943.68
  Ion intensities, Mean: Niacinamide: 5120.54
  Ion intensities, Mean: Nicotinamide adenine dinucleotide (NAD): 37985.70
  Ion intensities, Mean: O-Phosphoethanolamine: 302.71
  Ion intensities, Mean: Octadecenoic acid: 169.48
  Ion intensities, Mean: Oleamide: 3677.58
  Ion intensities, Mean: Oxidized glutathione: 4537.22
  Ion intensities, Mean: PALMITATE: 1211.29
  Ion intensities, Mean: PALMITOLEIC ACID: 39.36
  Ion intensities, Mean: PANTOTHENIC ACID: 524.89
  Ion intensities, Mean: PETROSELINIC ACID: 142.54
  Ion intensities, Mean: PHENYLALANINE: 2973.73
  Ion intensities, Mean: PHENYLETHANOLAMINE: 1559.27
  Ion intensities, Mean: Phenylpropionylglycine: 431.18
  Ion intensities, Mean: Phosphocholine: 23860.56
  Ion intensities, Mean: Phosphodimethyl-ethanolamine: 269.92
  Ion intensities, Mean: Pipecolic acid: 516.02
  Ion intensities, Mean: Propionylcarnitine: 540.78
  Ion intensities, Mean: Pyridoxamine-5′-Phosphate: 484.54
  Ion intensities, Mean: RAC-GLYCEROL-L-MYRISTATE: 283.53
  Ion intensities, Mean: S-Adenosylhomocysteine: 473.94
  Ion intensities, Mean: S-Adenosylmethionine: 18868.04
  Ion intensities, Mean: SERINE: 483.60
  Ion intensities, Mean: SUCCINATE: 304.14
  Ion intensities, Mean: Spermic acid 1: 199.76
  Ion intensities, Mean: Spermidine: 7809.52
  Ion intensities, Mean: Sphinganine: 23.16
  Ion intensities, Mean: Sphinganine 1-phosphate: 1966.99
  Ion intensities, Mean: Sphingosine: 1163.81
  Ion intensities, Mean: Stearoylglycerophosphoserine: 1831.40
  Ion intensities, Mean: Succinyladenosine: 217.97
  Ion intensities, Mean: TAURINE: 6801.22
  Ion intensities, Mean: THEOPHYLLINE: 18.56
  Ion intensities, Mean: TRYPTOPHAN: 1355.41
  Ion intensities, Mean: Tetradecanedioic acid: 115.20
  Ion intensities, Mean: Tetrahydrodeoxycortisol: 2674.78
  Ion intensities, Mean: Threoninyl-Alanine: 295.96
  Ion intensities, Mean: Tyrosine: 6818.63
  Ion intensities, Mean: URIDINE: 1161.25
  Ion intensities, Mean: URIDINE 5′-DIPHOSPHOGALACTOSE: 1728.73
  Ion intensities, Mean: URIDINE-5-MONOPHOSPHATE: 3704.01
  Ion intensities, Mean: Undecanedicarboxylic acid: 219.08
  Ion intensities, Mean: Uracil: 225.61
  Ion intensities, Mean: Uridine 5′-diphosphate: 422.30
  Ion intensities, Mean: Xanthine: 155.79
  Ion intensities, Mean: cyclic GMP-AMP: 2077.75
  Ion intensities, Mean: diethyltoluamide: 5.17
  Ion intensities, Mean: docosa-hexaenoic acid: 1911.88
  Ion intensities, Mean: hydroxyhexadecanoyl carnitine: 1048.02
  Ion intensities, Mean: hydroxyvitamin D3: 21210.39
  Ion intensities, Mean: sn-glycero-3-Phosphoethanolamine: 994.53

Reference: patent US12534439B2, “Xanthohumol derivatives and methods for making and using” (Oregon State University, priority 2021, dated 2026)
